Patent publication US9040530B2, “1,2,4-triazine-6-carboxamide kinase inhibitors” (Portola Pharmaceuticals, Inc., priority 2012, dated 2015)

The molecules below were run against T1, full length active recombinant SYK enzyme (Homo sapiens, UniProt P43405) (assay: Inhibition of Syk tyrosine phosphorylation activity (LANCE TR-FRET kinase assay)). Conditions: 1 nM active SYK enzyme, 550 nM SYK-substrate, 100 μM ATP, 1 hour at room temperature.
T1 construct: full length active recombinant SYK enzyme (Millipore, Calif.); purchased Millipore
Type: biochemical

Row | SMILES | IC50 [nM]
1 | NC(=O)c1nnc(N[C@@H]2CCCC[C@@H]2N)nc1Nc1ccc(F)cc1 [Example 25, 3-(((1R,2S)-2-aminocyclohexyl)amino)-5-((4-fluorophenyl)amino)-1,2,4-triazine-6-carboxamide] | 10 to 100
2 | Cn1ccc2c(Nc3nc(N[C@@H]4CCNC4)nnc3C(N)=O)cccc21 [Example 90, (R)-5-((1-methyl-1H-indol-4-yl)amino)-3-(pyrrolidin-3-ylamino)-1,2,4-triazine-6-carboxamide] | 1 to 10
3 | NC(=O)c1nnc(N[C@@H]2CCCC[C@@H]2N)nc1Nc1ccc(C(=O)N2CCC2)nc1 [Example 66, 3-(((1R,2S)-2-aminocyclohexyl)amino)-5-((6-(azetidine-1-carbonyl)pyridin-3-yl)amino)-1,2,4-triazine-6-carboxamide] | 10 to 100
4 | NC(=O)c1nnc(N[C@@H]2CCCC(F)(F)[C@@H]2N)nc1Nc1cnn2ccccc12 [Example 36, 3-(((1R,2R)-2-amino-3,3-difluorocyclohexyl)amino)-5-(pyrazolo[1,5-a]pyridin-3-ylamino)-1,2,4-triazine-6-carboxamide] | 10 to 100
5 | CC(C)C[C@@H](Nc1nnc(C(N)=O)c(Nc2ccc3c(ccc[n+]3[O-])c2)n1)C(N)=O [Example 54, (R)-6-((3-((1-amino-4-methyl-1-oxopentan-2-yl)amino)-6-carbamoyl-1,2,4-triazin-5-yl)amino)quinoline 1-oxide] | 10 to 100
6 | NC(=O)c1nnc(N[C@@H]2CCCC[C@@H]2N)nc1Nc1cccc(-c2ncco2)c1 [Example 7, 3-(((1R,2S)-2-aminocyclohexyl)amino)-5-((3-(oxazol-2-yl)phenyl)amino)-1,2,4-triazine-6-carboxamide] | 1 to 10
7 | Cc1cc(Nc2nc(N[C@@H]3CCCC[C@@H]3N)nnc2C(N)=O)ccc1C(=O)N1CCC1 [Example 64, 3-(((1R,2S)-2-aminocyclohexyl)amino)-5-((4-(azetidine-1-carbonyl)-3-methylphenyl)amino)-1,2,4-triazine-6-carboxamide] | 10 to 100
8 | NC(=O)c1nnc(N[C@@H]2CCCC[C@@H]2N)nc1Nc1cncc(F)c1 [Example 14, 3-(((1R,2S)-2-aminocyclohexyl)amino)-5-((5-fluoropyridin-3-yl)amino)-1,2,4-triazine-6-carboxamide] | 100 to 1000
9 | Cn1ncc2cc(Nc3nc(N[C@@H]4CCCC[C@@H]4N)nnc3C(N)=O)ccc21 [Example 109, 3-(((1R,2S)-2-aminocyclohexyl)amino)-5-((1-methyl-1H-indazol-5-yl)amino)-1,2,4-triazine-6-carboxamide] | 1 to 10
10 | NC(=O)c1nnc(N[C@@H]2CCCC(F)(F)[C@@H]2N)nc1Nc1ccc2ncsc2c1 [Example 43, 3-(((1R,2R)-2-amino-3,3-difluorocyclohexyl)amino)-5-(benzo[d]thiazol-6-ylamino)-1,2,4-triazine-6-carboxamide] | 10 to 100
11 | NC(=O)c1nnc(N[C@@H]2CCOC[C@@H]2N)nc1Nc1ccccc1 [Example 95, 3-(((3R,4R)-3-aminotetrahydro-2H-pyran-4-yl)amino)-5-(phenylamino)-1,2,4-triazine-6-carboxamide] | 10 to 100
12 | CC[C@@H](Nc1nnc(C(N)=O)c(Nc2ccccc2)n1)C(N)=O [Example 99, (R)-3-((1-amino-1-oxobutan-2-yl)amino)-5-(phenylamino)-1,2,4-triazine-6-carboxamide] | 100 to 1000
13 | Cn1ccc2c(Nc3nc(NCc4cc[nH]n4)nnc3C(N)=O)cccc21 [Example 91, 3-(((1H-pyrazol-3-yl)methyl)amino)-5-((1-methyl-1H-indol-4-yl)amino)-1,2,4-triazine-6-carboxamide] | 100 to 1000
14 | NC(=O)c1nnc(N[C@@H]2CCCC[C@@H]2N)nc1Nc1ccc(C(=O)N2CCC2)cc1 [Example 63, 3-(((1R,2S)-2-aminocyclohexyl)amino)-5-((4-(azetidine-1-carbonyl)phenyl)amino)-1,2,4-triazine-6-carboxamide] | 10 to 100
15 | NC(=O)c1nnc(N[C@@H]2CCCC[C@@H]2N)nc1Nc1cccnc1 [Example 100, 3-(((1R,2S)-2-aminocyclohexyl)amino)-5-(pyridin-3-ylamino)-1,2,4-triazine-6-carboxamide] | 10 to 100
16 | NC(=O)c1nnc(N[C@@H]2CCCC[C@@H]2N)nc1Nc1cccc(-n2cncn2)c1 [Example 5, 5-((3-(1H-1,2,4-triazol-1-yl)phenyl)amino)-3-(((1R,2S)-2-aminocyclohexyl)amino)-1,2,4-triazine-6-carboxamide] | 1 to 10
17 | Cn1ccc2c(Nc3nc(N[C@@H]4CCOC[C@@H]4N)nnc3C(N)=O)cccc21 [Example 82, 3-(((3R,4R)-3-aminotetrahydro-2H-pyran-4-yl)amino)-5-((1-methyl-1H-indol-4-yl)amino)-1,2,4-triazine-6-carboxamide] | 1 to 10
18 | CC[C@@H](Nc1nnc(C(N)=O)c(Nc2cccc3c2cnn3C)n1)C(N)=O [Example 107, (R)-3-((1-amino-1-oxobutan-2-yl)amino)-5-((1-methyl-1H-indazol-4-yl)amino)-1,2,4-triazine-6-carboxamide] | 10 to 100
19 | CC(C)C[C@@H](Nc1nnc(C(N)=O)c(Nc2cccc3c2cnn3C)n1)C(N)=O [Example 108, (R)-3-((1-amino-4-methyl-1-oxopentan-2-yl)amino)-5-((1-methyl-1H-indazol-4-yl)amino)-1,2,4-triazine-6-carboxamide] | 10 to 100

The remaining lines, values ahead:

Row | IC50 [nM] | SMILES
20 | 1 to 10 | Cn1ccc2cc(Nc3nc(N[C@@H]4CCCC[C@@H]4N)nnc3C(N)=O)cnc21 [Example 154, 3-(((1R,2S)-2-aminocyclohexyl)amino)-5-((1-methyl-1H-pyrrolo[2,3-b]pyridin-5-yl)amino)-1,2,4-triazine-6-carboxamide]
21 | 1 to 10 | COc1ccc(Nc2nc(N[C@@H]3CCCC[C@@H]3N)nnc2C(N)=O)cc1C(F)(F)F [Example 114, 3-(((1R,2S)-2-aminocyclohexyl)amino)-5-((4-methoxy-3-(trifluoromethyl)phenyl)amino)-1,2,4-triazine-6-carboxamide]
22 | 1 to 10 | CC[C@@H](Nc1nnc(C(N)=O)c(Nc2cc(Cl)c3ncccc3c2)n1)C(N)=O [Example 177, (R)-3-((1-amino-1-oxobutan-2-yl)amino)-5-((8-chloroquinolin-6-yl)amino)-1,2,4-triazine-6-carboxamide]
23 | 10 to 100 | Cn1cc(C#N)c2ccc(Nc3nc(N[C@@H]4CCCC(F)(F)[C@@H]4N)nnc3C(N)=O)cc21 [Example 173, 3-(((1R,2R)-2-amino-3,3-difluorocyclohexyl)amino)-5-((3-cyano-1-methyl-1H-indol-6-yl)amino)-1,2,4-triazine-6-carboxamide]
24 | 10 to 100 | Cc1ccc(Nc2nc(N[C@@H](C(N)=O)C(C)C)nnc2C(N)=O)cc1C [Example 208, (R)-3-((1-amino-3-methyl-1-oxobutan-2-yl)amino)-5-((3,4-dimethylphenyl)amino)-1,2,4-triazine-6-carboxamide]
25 | 10 to 100 | NC(=O)c1nnc(N[C@@H]2CCCC(F)(F)[C@@H]2N)nc1Nc1ccc2c(c1)CCC2 [Example 213, 3-(((1R,2R)-2-amino-3,3-difluorocyclohexyl)amino)-5-((2,3-dihydro-1H-inden-5-yl)amino)-1,2,4-triazine-6-carboxamide]
26 | 1 to 10 | COc1ccc(Nc2nc(N[C@@H]3CCCC[C@@H]3N)nnc2C(N)=O)cc1Cl [Example 125, 3-(((1R,2S)-2-aminocyclohexyl)amino)-5-((3-chloro-4-methoxyphenyl)amino)-1,2,4-triazine-6-carboxamide]
27 | 10 to 100 | CC[C@@H](Nc1nnc(C(N)=O)c(Nc2ccc(C)c(F)c2)n1)C(N)=O [Example 196, (R)-3-((1-amino-1-oxobutan-2-yl)amino)-5-((3-fluoro-4-methylphenyl)amino)-1,2,4-triazine-6-carboxamide]
28 | 10 to 100 | NC(=O)c1nnc(N[C@@H]2CCCC[C@@H]2N)nc1NC1CCc2ccccc2C1 (stereo partly drawn) [Example 206, 3-(((1R,2S)-2-aminocyclohexyl)amino)-5-((1,2,3,4-tetrahydronaphthalen-2-yl)amino)-1,2,4-triazine-6-carboxamide]
29 | 1 to 10 | CC[C@@H](Nc1nnc(C(N)=O)c(Nc2ccc3c(c2)CCC3)n1)C(N)=O [Example 211, (R)-3-((1-amino-1-oxobutan-2-yl)amino)-5-((2,3-dihydro-1H-inden-5-yl)amino)-1,2,4-triazine-6-carboxamide]
30 | 10 to 100 | NC(=O)c1nnc(N[C@@H]2CCCC[C@@H]2N)nc1Nc1cncs1 [Example 133, 3-(((1R,2S)-2-aminocyclohexyl)amino)-5-(thiazol-5-ylamino)-1,2,4-triazine-6-carboxamide]
31 | 1 to 10 | Cn1ccc2c(Nc3nc(N[C@@H]4CCCC[C@@H]4N)nnc3C(N)=O)cncc21 [Example 148, 3-(((1R,2S)-2-aminocyclohexyl)amino)-5-((1-methyl-1H-pyrrolo[2,3-c]pyridin-4-yl)amino)-1,2,4-triazine-6-carboxamide]
32 | 10 to 100 | C[C@@H](Nc1nnc(C(N)=O)c(Nc2ccc3ccn(C)c3c2)n1)C(N)=O [Example 164, (R)-3-((1-amino-1-oxopropan-2-yl)amino)-5-((1-methyl-1H-indol-6-yl)amino)-1,2,4-triazine-6-carboxamide]
33 | 100 to 1000 | COc1cc(Nc2nc(N[C@@H]3CCCC(F)(F)[C@@H]3N)nnc2C(N)=O)ccc1Cl [Example 230, 3-(((1R,2R)-2-amino-3,3-difluorocyclohexyl)amino)-5-((4-chloro-3-methoxyphenyl)amino)-1,2,4-triazine-6-carboxamide]
34 | 10 to 100 | Cc1cc(Nc2nc(N[C@H](CC3CC3)C(N)=O)nnc2C(N)=O)sn1 [Example 141, (R)-3-((1-amino-3-cyclopropyl-1-oxopropan-2-yl)amino)-5-((3-methylisothiazol-5-yl)amino)-1,2,4-triazine-6-carboxamide]
35 | 10 to 100 | COc1cc(Nc2nc(N[C@@H]3CCOC[C@@H]3N)nnc2C(N)=O)ccc1Cl [Example 256, 3-(((3R,4R)-3-aminotetrahydro-2H-pyran-4-yl)amino)-5-((4-chloro-3-methoxyphenyl)amino)-1,2,4-triazine-6-carboxamide]
